Measured values as given in US11891601B2, “Method to enhance the transcription regulation of SUPT4H on genes containing repetitive nucleotide sequences” (National Yang-Ming University, priority 2018, dated 2024).

Tested on: mutant HTT
Assay: Mutant HTT protein level in HD-Drosophila by Western blotting
Type: in vivo, Drosophila melanogaster
Conditions: 10 μM 6CR plus 100 μM Tropolone in media, fly heads
Method: For Drosophila samples, 15 males and 15 females HD flies were collected after each compound treatment. Their heads were isolated and homogenized with 1× sample buffer (50 mM Tris-HCl pH 7.5, 150 mM NaCl, 1% NP-40, 0.1% sodium dodecyl sulfate (SDS), 1% sodium deoxycholate, and blue dye) for protein lysate collection. Equivalent amounts of protein lysates were separated on 12% SDS-polyacrylamide gel, and then transferred to NC membranes (GE Healthcare Life Science). Detection of HTT and α-tubulin protein was performed as described above.
In each compound treatment experiment, 15 Gmr-ga14-UAS-HTT97Q/cyo male flies were crossed with 15 Gmr-ga14-UAS-HTT-97Q/cyo females in a vial containing 10 mL of media supplemented with the testing compound at a final concentration of 10 μM 6CR (Sigma) or/and 100 μM Tropolone (Sigma). […] In each treatment group, flies were analyzed and normalized with control flies. […]
Please refer to FIG. 8. […] After parent fly removal, the 4-day-old progenies carrying one Gmr-ga14-UAS-HTT97Q allele were collected and analyzed for eye morphology. […] 4-day-old progenies as described above were collected and analyzed the levels of mutant HTT by Western blotting. α-tubulin was included and served as a loading control. […]

O=c1cccccc1O [Tropolone]
level of mutant HTT, 6CR with co-treatment of Tropolone: decreased accordingly
